Data: ChEMBL document CHEMBL1201862, “PubChem BioAssay data set” (2004)
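Where inhibition never reached the appropriate level, the endpoint shown equals the highest concentration tested. Otherwise, values were interpolated linearly from a five-concentration, 48-hour dose response in 96-well plates. Here, GI50 denotes the concentration required for 50% inhibition of growth.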 Active and inactive are the calls of the source. No stated cut-off is given here; in the data, active = GI50 up to about 1.1 µM and inactive = higher.

Key:
Experiment in all cases: NCI-60 cell line screen, 48 h
SW-620 = system: SW-620
SNB-75 = system: SNB-75
SF-539 = system: SF-539
KM12 = system: KM12
786-0 = system: 786-0
M14 = system: M14
T47D = system: T47D
HT-29 = system: HT-29
CCRF-CEM = system: CCRF-CEM
SK-MEL-28 = system: SK-MEL-28
NCI-H226 = system: NCI-H226
OVCAR-5 = system: OVCAR-5
CAKI-1 = system: CAKI-1
UO-31 = system: UO-31
HOP-62 = system: HOP-62
BT-549 = system: BT-549
NCI-H23 = system: NCI-H23
RPMI-8226 = system: RPMI-8226
MDA-MB-435 = system: MDA-MB-435
MDA-N = system: MDA-N
HCC 2998 = system: HCC 2998
NCI-H522 = system: NCI-H522
K562 = system: K562
Hs-578T = system: Hs-578T
ACHN = system: ACHN
SK-MEL-2 = system: SK-MEL-2
SF-268 = system: SF-268
UACC-62 = system: UACC-62
SN12C = system: SN12C
U-251 = system: U-251
HL-60 = system: HL-60
NCI-H460 = system: NCI-H460
HCT-15 = system: HCT-15
MCF7 = system: MCF7
EKVX = system: EKVX
SK-OV-3 = system: SK-OV-3
Malme-3M = system: Malme-3M
SNB-19 = system: SNB-19
RXF 393 = system: RXF 393
UACC-257 = system: UACC-257
OVCAR-3 = system: OVCAR-3
SF-295 = system: SF-295
NCI/ADR-RES = system: NCI/ADR-RES
MDA-MB-231 = system: MDA-MB-231
LOX IMVI = system: LOX IMVI
COLO 205 = system: COLO 205
A498 = system: A498
SR = system: SR
DU-145 = system: DU-145
TK-10 = system: TK-10
MOLT-4 = system: MOLT-4
HCT-116 = system: HCT-116
OVCAR-4 = system: OVCAR-4
SK-MEL-5 = system: SK-MEL-5
PC-3 = system: PC-3
A549 = system: A549
OVCAR-8 = system: OVCAR-8
IGROV-1 = system: IGROV-1
HOP-92 = system: HOP-92
M19-MEL = system: M19-MEL
KM-20L2 = system: KM-20L2
DLD-1 = system: DLD-1
DMS-114 = system: DMS-114
LXFL 529 = system: LXFL 529
DMS-273 = system: DMS-273

Measured: GI50

C[C@H]1CCC/C=C/[C@@H]2C[C@H](OC3OC(CO)C(O)C(O)C3O)C[C@H]2[C@H](O)/C=C/C(=O)O1 (some centres not stated)
inactive: SW-620 35.9 µM | SNB-75 35 µM | SF-539 32.1 µM | KM12 31.3 µM | 786-0 36.7 µM | M14 46.9 µM | T47D > 100 µM | HT-29 33.2 µM | CCRF-CEM > 100 µM | SK-MEL-28 25.1 µM | NCI-H226 22.5 µM | OVCAR-5 37.3 µM | CAKI-1 > 100 µM | UO-31 24.4 µM | HOP-62 > 100 µM | BT-549 > 100 µM | NCI-H23 53.1 µM | RPMI-8226 53.8 µM | MDA-MB-435 50.6 µM | MDA-N 36.3 µM | HCC 2998 29.7 µM | NCI-H522 44 µM | K562 > 100 µM | Hs-578T 30.1 µM | ACHN > 100 µM | SK-MEL-2 49.5 µM | SF-268 72.8 µM | UACC-62 35.6 µM | SN12C > 100 µM | U-251 94 µM | HL-60 > 100 µM | NCI-H460 78.9 µM | MCF7 62.4 µM | EKVX > 100 µM | SK-OV-3 40 µM | Malme-3M 17.8 µM | SNB-19 > 100 µM | RXF 393 19 µM | UACC-257 26.5 µM | OVCAR-3 55.6 µM | SF-295 77.6 µM | NCI/ADR-RES 33.3 µM | MDA-MB-231 20.4 µM | LOX IMVI 36.1 µM | COLO 205 17.2 µM | A498 25.5 µM | SR > 100 µM | DU-145 > 100 µM | TK-10 91.2 µM | MOLT-4 > 100 µM | HCT-116 77.8 µM | OVCAR-4 78.5 µM | SK-MEL-5 17.2 µM | PC-3 64.6 µM | A549 88.7 µM | OVCAR-8 39.5 µM | IGROV-1 > 100 µM | HOP-92 > 100 µM
72.3 µM: HCT-15

C/C(=N\NC(=O)c1cccnc1)c1cccc(/C(C)=N/NC(=O)c2cccnc2)n1
inactive: SW-620 2.78 µM | SF-539 2.36 µM | KM12 4.85 µM | M14 2.85 µM | OVCAR-5 2.08 µM | UO-31 3.81 µM | NCI-H23 7.4 µM | M19-MEL 13.2 µM | KM-20L2 2.21 µM | ACHN 1.48 µM | DLD-1 1.95 µM | UACC-62 2.04 µM | SN12C 4.81 µM | U-251 2.06 µM | NCI-H460 3.41 µM | EKVX 3.42 µM | SK-OV-3 4.14 µM | SNB-19 3.56 µM | UACC-257 3.06 µM | SF-295 4.15 µM | LOX IMVI 2 µM | TK-10 4.67 µM | A549 2.99 µM | OVCAR-8 2.43 µM
3.99 µM: HCT-15
active: SF-268 0.867 µM

COC(=O)/C(=N/Nc1cccc(Cl)c1)C(C(=O)C(=O)Nc1cccc(Cl)c1C)c1nc2ccccc2nc1C (configuration not stated)
inactive: SW-620 > 100 µM | SF-539 59.2 µM | KM12 80.7 µM | 786-0 > 100 µM | M14 53.5 µM | HT-29 > 100 µM | CCRF-CEM 62.5 µM | SK-MEL-28 92.3 µM | OVCAR-5 24.4 µM | CAKI-1 52.6 µM | UO-31 20.1 µM | HOP-62 38.3 µM | NCI-H23 > 100 µM | M19-MEL 54 µM | RPMI-8226 88.5 µM | HCC 2998 43.8 µM | NCI-H522 > 100 µM | K562 32.2 µM | KM-20L2 32 µM | ACHN 11.6 µM | SK-MEL-2 38.5 µM | DLD-1 34.5 µM | SF-268 > 100 µM | UACC-62 24.6 µM | SN12C 60.7 µM | HL-60 29.6 µM | NCI-H460 48.8 µM | EKVX > 100 µM | SK-OV-3 > 100 µM | Malme-3M 55 µM | RXF 393 > 100 µM | UACC-257 > 100 µM | OVCAR-3 > 100 µM | SF-295 > 100 µM | DMS-114 45 µM | COLO 205 > 100 µM | A498 > 100 µM | SR 90.4 µM | TK-10 > 100 µM | MOLT-4 > 100 µM | HCT-116 62.5 µM | OVCAR-4 68.5 µM | SK-MEL-5 36 µM | A549 63.7 µM | OVCAR-8 > 100 µM | IGROV-1 41.7 µM

COc1ccc(/C=N/NC(=O)CSc2nc(-c3ccccc3)c(-c3ccccc3)[nH]2)cc1OC
inactive: SW-620 29.9 µM | SNB-75 29.9 µM | SF-539 22.4 µM | KM12 17.2 µM | 786-0 28.7 µM | M14 17.7 µM | HT-29 29.8 µM | CCRF-CEM 34.7 µM | SK-MEL-28 41 µM | NCI-H226 30.8 µM | OVCAR-5 22 µM | CAKI-1 33.1 µM | UO-31 25.5 µM | HOP-62 39.3 µM | NCI-H23 30.3 µM | M19-MEL 18.4 µM | RPMI-8226 20.3 µM | NCI-H522 19.7 µM | KM-20L2 19.1 µM | ACHN 31.3 µM | SK-MEL-2 20.7 µM | DLD-1 42.6 µM | SF-268 50 µM | UACC-62 23.5 µM | LXFL 529 22.1 µM | SN12C 30.1 µM | U-251 25.6 µM | HL-60 20.3 µM | NCI-H460 28.6 µM | EKVX 31 µM | SK-OV-3 26.4 µM | Malme-3M 19.5 µM | SNB-19 34.5 µM | RXF 393 20.1 µM | UACC-257 27.1 µM | OVCAR-3 17.1 µM | SF-295 24.2 µM | DMS-114 46.1 µM | LOX IMVI 20.5 µM | COLO 205 21.2 µM | A498 26.6 µM | TK-10 35.4 µM | MOLT-4 16 µM | HCT-116 34.5 µM | DMS-273 20.4 µM | OVCAR-4 31.3 µM | SK-MEL-5 17.5 µM | A549 45.9 µM | OVCAR-8 16.2 µM | IGROV-1 28.8 µM | HOP-92 42.1 µM
26.9 µM: HCT-15

Nc1nc(Cl)c(C=O)c(NCC2(CO)CC(CCc3ccccc3)C2)n1 (configuration not stated)
4.18 µM: HCT-15
inactive: SW-620 4.1 µM | SNB-75 18.7 µM | SF-539 12.4 µM | KM12 13.7 µM | 786-0 21 µM | M14 2.54 µM | T47D 1.34 µM | HT-29 12.4 µM | CCRF-CEM 7.85 µM | SK-MEL-28 4 µM | NCI-H226 12.6 µM | OVCAR-5 15.8 µM | CAKI-1 1.55 µM | UO-31 1.48 µM | HOP-62 14.5 µM | BT-549 12.1 µM | NCI-H23 2.29 µM | RPMI-8226 12.4 µM | MDA-MB-435 5.73 µM | MDA-N 6.59 µM | HCC 2998 1.88 µM | NCI-H522 1.71 µM | K562 1.88 µM | Hs-578T 22.9 µM | ACHN 12.7 µM | SK-MEL-2 3.57 µM | SF-268 15.4 µM | UACC-62 5.38 µM | SN12C 6.15 µM | U-251 13.6 µM | HL-60 1.67 µM | NCI-H460 16.7 µM | MCF7 9.16 µM | EKVX 3.94 µM | SK-OV-3 11.3 µM | Malme-3M 14.1 µM | SNB-19 13.7 µM | RXF 393 14.2 µM | UACC-257 3.08 µM | OVCAR-3 11.3 µM | SF-295 13.3 µM | NCI/ADR-RES 16.2 µM | MDA-MB-231 7.46 µM | LOX IMVI 2.95 µM | COLO 205 11.6 µM | A498 11.7 µM | SR 1.87 µM | DU-145 14.8 µM | TK-10 15.2 µM | MOLT-4 2.62 µM | HCT-116 13.7 µM | OVCAR-4 2 µM | SK-MEL-5 8.05 µM | PC-3 6.43 µM | A549 12.1 µM | OVCAR-8 2.07 µM | IGROV-1 1.74 µM | HOP-92 1.77 µM
